Experimental data: ChEMBL document CHEMBL1139353, “Discovery of a new class of potential multifunctional atypical antipsychotic agents targeting dopamine D3 and serotonin 5-HT1A and 5-HT2A receptors: design, synthesis, and effects on behavior” (J Med Chem, 2009)
Active and inactive are the calls of the source. The calls are words filed in the database; no cut-off is given here.

How the values were obtained:
Mus musculus [1] = assay: Antipsychotic activity in NMRI mouse assessed as reduction in phencyclidine-induced locomotor activity at 3 mg/kg administered 30 mins prior to testing measured for 60 mins; format: functional, organism-based; parameters: dose 3 mg/kg
Rattus norvegicus = assay: Induction of c-Fos protein expression in rat nucleus accumbens shell at 3 mg/kg, ip after 1 hr by light microscopy; format: functional, organism-based; parameters: dose 3 mg/kg
Histamine H1 receptor = Histamine H1 receptor (Cavia porcellus, UniProt P31389); assay: Displacement of [3H]pyrilamine from histamine H1 receptor in guinea pig cerebellum; format: tissue-based
[2] = target: T1, Adrenergic receptor alpha-1 (Rattus norvegicus, UniProt P15823+P23944+P43140); assay: Displacement of [3H]prazosin from adrenergic alpha1 receptor in rat cerebral cortex by liquid scintillation counting; format: tissue-based
T1 sequence (P15823 whole entry): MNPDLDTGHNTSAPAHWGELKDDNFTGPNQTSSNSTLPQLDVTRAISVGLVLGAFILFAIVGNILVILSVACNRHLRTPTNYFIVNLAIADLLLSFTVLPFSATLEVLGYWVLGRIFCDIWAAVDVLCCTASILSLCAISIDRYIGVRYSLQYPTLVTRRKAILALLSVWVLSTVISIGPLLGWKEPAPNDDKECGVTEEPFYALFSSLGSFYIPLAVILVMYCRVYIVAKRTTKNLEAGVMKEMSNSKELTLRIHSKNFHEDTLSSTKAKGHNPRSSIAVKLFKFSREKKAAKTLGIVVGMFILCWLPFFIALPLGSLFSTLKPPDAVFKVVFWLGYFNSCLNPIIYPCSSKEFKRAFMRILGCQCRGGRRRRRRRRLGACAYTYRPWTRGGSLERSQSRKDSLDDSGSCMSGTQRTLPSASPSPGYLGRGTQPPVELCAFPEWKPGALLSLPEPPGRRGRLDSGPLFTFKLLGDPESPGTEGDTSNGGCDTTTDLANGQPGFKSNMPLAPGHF
T1 sequence (P23944 whole entry): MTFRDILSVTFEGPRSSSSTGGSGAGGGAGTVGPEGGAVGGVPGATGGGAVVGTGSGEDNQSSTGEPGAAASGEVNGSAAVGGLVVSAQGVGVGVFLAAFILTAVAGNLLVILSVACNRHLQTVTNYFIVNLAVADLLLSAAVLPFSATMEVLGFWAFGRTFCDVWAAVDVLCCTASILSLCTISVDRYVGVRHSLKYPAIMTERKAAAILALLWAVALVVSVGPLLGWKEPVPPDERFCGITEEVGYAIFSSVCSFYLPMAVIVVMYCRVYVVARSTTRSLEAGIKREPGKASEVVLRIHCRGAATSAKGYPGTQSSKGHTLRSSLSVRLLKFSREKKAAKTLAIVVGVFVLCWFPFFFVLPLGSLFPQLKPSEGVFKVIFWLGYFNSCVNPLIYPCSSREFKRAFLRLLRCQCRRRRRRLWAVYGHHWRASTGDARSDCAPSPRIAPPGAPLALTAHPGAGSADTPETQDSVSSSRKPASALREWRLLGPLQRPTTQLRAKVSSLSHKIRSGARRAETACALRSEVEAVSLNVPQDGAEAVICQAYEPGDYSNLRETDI
T1 sequence (P43140 whole entry): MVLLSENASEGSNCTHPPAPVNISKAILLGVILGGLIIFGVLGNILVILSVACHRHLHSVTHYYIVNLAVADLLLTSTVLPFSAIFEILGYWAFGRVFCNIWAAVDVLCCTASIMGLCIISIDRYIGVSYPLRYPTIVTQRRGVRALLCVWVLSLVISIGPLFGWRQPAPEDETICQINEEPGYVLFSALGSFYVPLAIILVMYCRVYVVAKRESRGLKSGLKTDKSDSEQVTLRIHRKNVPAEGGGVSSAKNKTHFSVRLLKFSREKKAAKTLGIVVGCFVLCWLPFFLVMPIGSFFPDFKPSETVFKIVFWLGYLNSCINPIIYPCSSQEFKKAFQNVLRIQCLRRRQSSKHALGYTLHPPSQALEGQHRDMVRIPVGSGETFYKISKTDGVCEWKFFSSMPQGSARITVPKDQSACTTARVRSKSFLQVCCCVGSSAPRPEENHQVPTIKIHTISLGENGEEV

[3] = target: Voltage-gated inwardly rectifying potassium channel KCNH2 (Homo sapiens, UniProt Q12809)
Description: Binding affinity to human ERG expressed in HEK293 cells by whole cell patch clamp method

Mus musculus [4] = species on record: Mus musculus; conditions: in vivo, 0.5 h
Description: Sedative activity in NMRI mouse assessed as reduction in spontaneous locomotor activity administered 30 mins prior to testing

Mus musculus [5] = species on record: Mus musculus; assay: animal or person; conditions: NMRI
Description: Antipsychotic activity in NMRI mouse assessed as reduction in methamphetamine-induced locomotor activity administered 30 mins prior to testing measured for 60 mins

Mus musculus [6] = species on record: Mus musculus; assay: animal or person; conditions: NMRI; remark: listed apart in the source
Description: Antipsychotic activity in NMRI mouse assessed as reduction in phencyclidine-induced locomotor activity administered 30 mins prior to testing measured for 60 mins

Voltage-gated inwardly rectifying potassium channel KCNH2, sequence (Q12809 whole entry): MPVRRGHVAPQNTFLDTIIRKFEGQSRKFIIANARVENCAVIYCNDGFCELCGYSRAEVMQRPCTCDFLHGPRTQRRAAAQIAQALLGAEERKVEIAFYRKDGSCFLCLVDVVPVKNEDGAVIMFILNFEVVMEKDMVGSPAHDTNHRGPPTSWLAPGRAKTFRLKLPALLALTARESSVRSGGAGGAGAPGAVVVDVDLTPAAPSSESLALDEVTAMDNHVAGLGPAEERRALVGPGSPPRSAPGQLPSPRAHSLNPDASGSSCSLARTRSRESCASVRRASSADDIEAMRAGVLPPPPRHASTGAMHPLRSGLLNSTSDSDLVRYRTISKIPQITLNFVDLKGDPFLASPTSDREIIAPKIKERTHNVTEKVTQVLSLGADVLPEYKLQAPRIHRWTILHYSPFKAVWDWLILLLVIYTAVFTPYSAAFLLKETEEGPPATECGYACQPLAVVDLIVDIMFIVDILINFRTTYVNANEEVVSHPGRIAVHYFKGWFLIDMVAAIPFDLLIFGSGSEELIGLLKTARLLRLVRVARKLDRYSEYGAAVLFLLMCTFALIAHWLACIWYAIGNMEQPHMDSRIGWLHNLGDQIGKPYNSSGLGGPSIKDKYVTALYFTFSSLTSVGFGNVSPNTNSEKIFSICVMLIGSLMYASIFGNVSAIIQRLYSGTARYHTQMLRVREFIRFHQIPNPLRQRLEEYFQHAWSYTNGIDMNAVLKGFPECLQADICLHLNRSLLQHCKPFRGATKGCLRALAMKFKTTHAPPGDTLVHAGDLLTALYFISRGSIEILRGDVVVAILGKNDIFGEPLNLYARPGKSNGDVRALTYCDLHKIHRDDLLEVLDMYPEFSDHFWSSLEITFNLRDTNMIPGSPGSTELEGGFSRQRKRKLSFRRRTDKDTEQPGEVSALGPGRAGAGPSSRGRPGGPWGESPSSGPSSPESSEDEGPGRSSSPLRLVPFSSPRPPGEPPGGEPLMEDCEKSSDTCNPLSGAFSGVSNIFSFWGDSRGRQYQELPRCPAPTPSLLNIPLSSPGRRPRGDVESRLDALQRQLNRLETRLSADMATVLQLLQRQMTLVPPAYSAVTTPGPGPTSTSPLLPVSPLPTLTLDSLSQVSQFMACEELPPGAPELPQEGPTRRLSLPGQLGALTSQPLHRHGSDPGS
Histamine H1 receptor, sequence (P31389 whole entry): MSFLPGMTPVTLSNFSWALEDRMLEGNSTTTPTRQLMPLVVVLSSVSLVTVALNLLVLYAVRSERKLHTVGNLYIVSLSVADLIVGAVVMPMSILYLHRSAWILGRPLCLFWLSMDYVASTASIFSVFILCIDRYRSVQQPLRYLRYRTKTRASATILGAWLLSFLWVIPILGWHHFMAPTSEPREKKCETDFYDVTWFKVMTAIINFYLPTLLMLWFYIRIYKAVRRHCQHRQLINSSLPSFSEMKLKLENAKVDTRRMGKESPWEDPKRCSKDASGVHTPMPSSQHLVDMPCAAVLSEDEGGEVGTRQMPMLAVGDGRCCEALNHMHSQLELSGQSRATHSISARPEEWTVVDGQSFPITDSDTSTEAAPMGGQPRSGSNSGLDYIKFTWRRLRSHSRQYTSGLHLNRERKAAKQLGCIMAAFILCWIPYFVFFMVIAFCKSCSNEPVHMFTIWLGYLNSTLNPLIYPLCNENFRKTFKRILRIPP

Q: How did the Activity (Mus musculus [1]) turn out when `Cc1cccc(N2CCN(CCCCNC(=O)c3cc4ccccc4o3)CC2)c1` was run?
A: The Activity was “Active”.

Q: And the Activity (Rattus norvegicus)?
A: The Activity was “Active”.

Q: And the Ki (Histamine H1 receptor)?
A: Its Ki is 15 nM.

Q: And the Ki [2]?
A: The Ki was 6 nM.

Q: What about the Ki [3] of the same compound?
A: The Ki was 930 nM.

Q: And the ED50 (Mus musculus [4])?
A: Its ED50 is 5.5 mg/kg.

Q: What about the ED50 (Mus musculus [5]) of the same compound?
A: The ED50 was 2.1 mg/kg.

Q: And the ED50 (Mus musculus [6])?
A: Its ED50 is 2.6 mg/kg.
